Reference: US20230286973A1, “PROTEIN SECRETION INHIBITORS” (KEZAR LIFE SCIENCES, priority 2020, published 2023)

Legend:
[1] = Liver Microsome Stability Assay (monkey); settings: monkey liver microsomes, with NADPH, 1.0 uM compound
Description: (§3) Stability of a compound was assessed in the presence of liver microsomes from various sources—mouse, rat, monkey and human liver microsomes. 1.0 uM compound, 0.4% DMSO in 0.1 M Potassium Phosphate with 1.0 mg/mL liver microsomes, were incubated at 37° C. with or without 1 mM NADPH. The samples were quenched at 0, and 30 minutes.

[2] = tested on: PD1-ss+10aa/Gaussia Luciferase; test: Dox-Induced PD1-ss-Gluc Assay; assay type: cell-based; settings: 24 hr Dox induction; 293FRT/TO cells; mean; read-out: 24 hr Dox Inducible PD1ssGluc 293FRT/TO: Mean IC50
Excerpt: Flp-In 293 T-REx™ cells were transfected with pcDNA™5/FRT/TO plasmid inserted with cDNA encoding Gaussia Luciferase fused to the 3′ end of cDNA encoding PD1 signal sequence plus 10 amino acids (N-[…]-C) (SEQ ID NO: 1). Transfected cells were selected for resistance to the selectable markers Hygromycin and Blasticidin to create a stable cell line that contained the PD1-ss+10aa/Gaussia Luciferase cDNA insert whose expression was regulated under the T-REx™ system. The day before assay, cells were trypsinized and plated in 384-well tissue culture plates. The next day, compound dilutions in DMSO/media containing doxycycline were added to the wells and incubated at 37° C., 5% CO2.
(§1) For chemical structures that include one or more stereoisomers, but are illustrated without indicating stereochemistry, the assay data refers to a mixture of stereoisomers.

[3] = tested on: IL-2-FL/Gaussia Luciferase; test: Dox Induced IL2-FL-Gluc Assay; assay type: cell-based; settings: for IC50: 24 hr Dox induction, 293FRT/TO cells, mean, read-out: 24 hr Dox Inducible IL2FLGluc 293FRT/TO: Mean IC50; for 24 hr Dox Inducible IL2FLGluc 293FRT/TO: IL2/PD1: ratio of IL2FLGluc IC50 to PD1ssGluc IC50, '<=>' given where both are I.A.
Excerpt: Flp-In 293 T-REx™ cells were transfected with pcDNA™5/FRT/TO plasmid inserted with cDNA encoding Gaussia Luciferase fused to the 3′ end of cDNA encoding full length IL-2 (amino acids 1-153). Transfected cells were selected for resistance to the selectable markers Hygromycin and Blasticidin to create a stable cell line that contained the IL-2-FL/Gaussia Luciferase cDNA insert whose expression was regulated under the T-REx™ system. The day before assay, cells were trypsinized and plated in 384-well tissue culture plates. The next day, compound dilutions in DMSO/media containing doxycycline were added to the wells and incubated at 37° C., 5% CO2.
as §1

[4] = Liver Microsome Stability Assay (rat); settings: rat liver microsomes, with NADPH, 1.0 uM compound
Description: as §3

[5] = tested on: multiple myeloma cell line U266B1; test: U266 Cell Viability Assay; assay type: cell-based, human; settings: Homo sapiens, U-266, 48 h, U266B1 cells, Celltiter-Glo
Description: (§2) The human multiple myeloma cell line U266B1 was cultured in RPMI 1640 media supplemented with 10% fetal bovine serum, 2 mM Glutamine, and 1× Penicillin/Streptomycin. Cells were plated in 384-well tissue culture plates and treated with compound dilutions in DMSO/media. Plates were incubated at 37° C., 5% CO2 for 48 hours. After 48 hours, Celltiter-Glo® (Promega) was added to each well and luciferase signal was quantified using Tecan Infinite M1000 Pro for cell viability determination.
as §1

[6] = Liver Microsome Stability Assay (mouse); settings: mouse liver microsomes, with NADPH, 1.0 uM compound
Description: as §3

[7] = tested on: multiple myeloma cell line NCI-H929; test: H929 Cell Viability Assay; assay type: cell-based, human; settings: Homo sapiens, NCI-H929, 48 h, NCI-H929 cells, Celltiter-Glo
Description: as §2, with “NCI-H929” for “U266B1”, “cultured in Advanced RPMI 1640 media (Gibco®) supplemented with 6% fetal bovine serum, 2 mM Glutamine, and 1× Penicillin/Streptomycin. On the day of assay, cells were resuspended” for “cultured”, “Penicillin/Streptomycin and” for “Penicillin/Streptomycin. Cells were”
as §1

[8] = Liver Microsome Stability Assay (human); settings: human liver microsomes, with NADPH, 1.0 uM compound
Description: as §3

Row | Liver Microsome Stability (Multiple Species): Monkey - % Remaining after 30 min w/NADPH [1] [%] | IC50 [2] [µM] | IC50 [3] [µM] | Liver Microsome Stability (Multiple Species): Rat - % Remaining after 30 min w/NADPH [4] [%] | EC50 [5] [µM] | Liver Microsome Stability (Multiple Species): Mouse - % Remaining after 30 min w/NADPH [6] [%] | EC50 [7] [µM] | Liver Microsome Stability (Multiple Species): Human - % Remaining after 30 min w/NADPH [8] [%] | Structure (SMILES) | 24 hr Dox Inducible IL2FLGluc 293FRT/TO: IL2/PD1 [3]
1 | 65 | 9.67 | 6.05 | 20.3 | > 25 | 41.1 | 23.8 | 54.7 | C#CCn1cccc1C(=O)Nc1nc([C@H]2CCCN2c2ccccc2)cs1 [Compound C33, (R)-N-(4-(1-phenylpyrrolidin-2-yl)thiazol-2-yl)-1-(prop-2-yn-1-yl)-1H-pyrrole-2-carboxamide] | 0.63
2 | 8.58 | > 25 | > 25 | 0.08 | > 25 | 26 | > 25 | 6.44 | O=C(Nc1nc([C@H]2CCCN2c2ccccc2)cs1)c1cccn1CC1CCS(=O)(=O)CC1 [Compound C37, (R)-1-((1,1-dioxidotetrahydro-2H-thiopyran-4-yl)methyl)-N-(4-(1-phenylpyrrolidin-2-yl)thiazol-2-yl)-1H-pyrrole-2-carboxamide] | 
3 | 53.9 | 2.75 | 3.35 | 56.6 | > 25 | 64.7 | > 25 | 79.7 | O=C(Nc1nc([C@H]2CCCN2c2ccccc2)cs1)c1cccn1CC1CCCCC1 [Compound C39, (R)-1-(cyclohexylmethyl)-N-(4-(1-phenylpyrrolidin-2-yl)thiazol-2-yl)-1H-pyrrole-2-carboxamide] | 1.2

The remaining lines, values behind:

Row | Structure (SMILES) | Liver Microsome Stability (Multiple Species): Monkey - % Remaining after 30 min w/NADPH [1] [%] | IC50 [2] [µM] | IC50 [3] [µM] | Liver Microsome Stability (Multiple Species): Rat - % Remaining after 30 min w/NADPH [4] [%] | EC50 [5] [µM] | Liver Microsome Stability (Multiple Species): Mouse - % Remaining after 30 min w/NADPH [6] [%] | EC50 [7] [µM] | Liver Microsome Stability (Multiple Species): Human - % Remaining after 30 min w/NADPH [8] [%] | 24 hr Dox Inducible IL2FLGluc 293FRT/TO: IL2/PD1 [3]
4 | O=C(Nc1nc([C@H]2CCCN2c2ccccc2)cs1)c1cccn1Cc1cnn[nH]1 [Compound C29, (R)-1-((1H-1,2,3-triazol-5-yl)methyl)-N-(4-(1-phenylpyrrolidin-2-yl)thiazol-2-yl)-1H-pyrrole-2-carboxamide] | 41.9 | 4.89 | > 25 | 17 | > 25 | 37.5 | > 25 | 46.1 | >5.1
5 | C#CCCCCn1cccc1C(=O)Nc1nc([C@H]2CCCN2c2ccccc2)cs1 [Compound C30, (R)-1-(hex-5-yn-1-yl)-N-(4-(1-phenylpyrrolidin-2-yl)thiazol-2-yl)-1H-pyrrole-2-carboxamide] | 5.63 | 5.21 | 5.62 | 9.91 | > 25 | 37.6 | > 25 | 39.8 | 1.1
6 | C#CCCCn1cccc1C(=O)Nc1nc([C@H]2CCCN2c2ccccc2)cs1 [Compound C31, (R)-1-(pent-4-yn-1-yl)-N-(4-(1-phenylpyrrolidin-2-yl)thiazol-2-yl)-1H-pyrrole-2-carboxamide] | 1.3 | 4.12 | 7.05 | 5.84 | > 25 | 38.7 | > 25 | 53.4 | 1.7
